Assay results reported in patent US20220110985A1, “NUTRITIONAL COMPOSITION COMPRISING 2'FUCOSYLLACTOSE AND 3'GALACTOSYLLACTOSE” (N.V. Nutricia, priority 2019, published 2022).
Marks after values point to notes of the source that are not given here.

Key:
Caco-2 cell monolayer = assay: DON-induced impairment of Caco-2 cell monolayer integrity (TEER, lucifer yellow flux); type: cell-based, human; settings: for effect on DON-induced loss of epithelial barrier integrity (TEER, LY flux), in words: 24 h pretreatment (GLs 0.75 wt. %; 2′-FL 1 mg/ml), then DON 4.2 μM 24 h
Procedure: Beta1,3′-galactosyl-lactose (beta3′-GL), beta1,4′-galactosyllactose (beta4′-GL) and beta1,6′-galactosyl-lactose (beta6′-GL) were obtained from Carbosynth (Berkshire, UK). Alpha1,3′-galactosyl-lactose (alpha3′-GL) was obtained from Elicityl (Crolles, France). Purified deoxydivalenol (DON) (D0156; Sigma Aldrich, St Luis, Mo., USA) was dissolved in pure ethanol and stored at −20° C. Human epithelial colorectal adenocarcinoma (Caco-2) cells were obtained from American […] (Code HTB-37) (Manasse, Va., USA, passage 90-102).
Caco-2 cells were used according to established methods. In brief: cells were cultured in Dulbecco's modified Eagle medium (DMEM) and seeded at a density of 0.3×10^5 cells into 0.3 cm^2 high pore density (0.4 μm) inserts with a polyethylene terephthalate membrane (BD Biosciences, Franklin Lakes, N.J., USA) placed in a 24-well plate. The Caco-2 cells were maintained in a humidified atmosphere of 95 air and 5% CO2 at 37° C.
Caco-2 cell monolayers were thus grown in a transwell system, which is a model for intestinal barrier function. The monolayers were pretreated for 24 h with different GLs, including beta3′-GL, alpha3′-GL, beta4′-GL and beta6′-GL in a concentration of 0.75 wt. % of the GL, before being exposed to the fungal toxin deoxynivalenol (DON), which is a trigger and model compound to impair intestinal barrier. DON was diluted to a final concentration of 4.2 μM in complete cell medium and added to the apical side as well as to the basolateral side of the transwell inserts. […] Incubation with DON was 24 h.
Measurements of the transepithelial electrical resistance (TEER) and lucifer yellow (LY) permeability were conducted to investigate barrier integrity. For TEER measurements a Millicel-ERS voltohmmeter connected to a pair of chopsticks electrodes was used to measure the TEER values. Results are expressed as a percentage of the initial value. For paracellular tracer flux assay the membrane impermeable lucifer yellow (LY) (Sigma, St Luis, Mo., USA) was added in a concentration of 16 μg/ml to the apical compartment in the transwell plate for 4 h, and the paracellular flux was determined by measuring the fluorescence intensity in the basolateral compartment with a spectrophotofluorimeter (FLUOstar Optima, BMG Labtech, Offenburg, Germany) set at excitation and emission wavelengths of 410 and 520 nm, respectively. Release of interleukin-8 (IL-8 or CXCL8), which is a typical marker for inflammation, was quantified in the medium of the apical side and the basolateral side of the Caco-2 transwell inserts in response to the treatments. CXCL8 concentrations were measured by using the human IL-8 ELISA assay (BD Biosciences, Pharmingem, San Diego, Calif., USA) according to manufacturer's instructions. For more details on materials and methods see Akbari et al, 2016, Eur J Nutr. 56(5):1919-1930.

[1] = system: T84 human intestinal epithelial cells; assay: T84 monolayer barrier integrity (TEER) with IL-4; type: cell-based; settings: butyric acid 4 mM, TEER increase relative to t=0
Procedure: T84 human intestinal epithelial cells are commonly used to study intestinal barrier integrity in vitro. T84 cells (ATCC, USA) were cultured on 12 mm transwell inserts (0.4 μm, Corning Costrar, USA) in DMEM-F12 glutamax with penicillin-streptomycin (100 IU/ml), supplemented with 5% FBS-Hl. T84 cells were used 14 days after reaching confluence. Monolayers of T84 cultured on transwell filters were pre-incubated for 48 h with or without butyrate. These samples were subsequently incubated for an additional 48 h in the presence of IL-4 (25 ng/ml). IL-4 was added to the basolateral compartment; medium and additives were changed every 24 h.
Epithelial barrier integrity was assessed by measuring transepithelial resistance (TEER; Ω×cm^2) with the epithelial volt-ohm meter (EVOM; World Precision Instruments, Germany).
Results are shown in Table 5 where relative TEER values are presented. The 48 h and 96 h column is the TEER increase relative to t=0 value. IL-4 treatment disrupted the intestinal barrier function; however in the presence of butyrate this disruption was ameliorated.

[2] = system: human peripheral blood mononuclear cells (PBMCs); assay: PBMC cell activity (WST-1); type: cell-based; settings: after 24 h; non-stimulated and CD3/CD28 stimulated conditions
Procedure: Isolation of PBMC from healthy donors: Human peripheral blood mononuclear cells (PBMC) from healthy donors were isolated from buffy coats (Sanquin, Amsterdam, the Netherlands). PBMC were obtained by centrifugation using Leucosep tubes (Greiner Bio-One). PBMC were collected and washed in PBS (Gibco, Thermo Fisher Technologies)+2% heat-inactivated FCS (Invitrogen), followed by hypotonic lysis of erythrocytes with sterile lysis buffer (0.15 M NH4Cl, 0.01 M KHCO3 and 0.1 mM EDTA, pH of 7.4 at 4° C., all from Merck, Darmstadt, Germany). After lysis, the PBMC were resuspended in freezing medium (70% RPMI 1640 medium (Gibco, Thermo Fisher Technologies) supplemented with 10% heat-inactivated FCS and 100 U/ml penicillin-streptomycin, 20% heat-inactivated FCS and 10% DMSO (Sigma)) and cryopreserved.
PBMC activation model: PBMC (0.2·10^6 cell/well) were cultured in 96-well flat bottom plates (Corning). For 24 hours the cells were pre-incubated with 2′-FL (Jennewein), 3′-GL (0-0.3% w/v; Carbosynth) or sodium butyrate (0.2 mM; Sigma Aldrich) and combinations thereof. Subsequently, the cells were CD3/CD28-activated (Pelicluster CD3 and Pelicluster CD28, Sanquin) for an additional 24 hours. After incubation, IFNγ was measured by ELISA in the supernatants (see below). To determine cell activity after stimulation, PBMC were incubated with cell proliferation reagent WST-1 (10 μl; Roche) and/or 10% Triton (5 μl; negative control). After 3 hours, absorbance was measured at OD450 nm and OD650 nm and cell activity was calculated according to manufacturer's instructions.

human PBMC, unstimulated = assay: Cytokine production of unstimulated PBMC (IL10, CCL20); type: cell-based
Excerpt: Isolation of PBMC from healthy donors: Human peripheral blood mononuclear cells (PBMC) from healthy donors were isolated from buffy coats (Sanquin, Amsterdam, the Netherlands). PBMC were obtained by centrifugation using Leucosep tubes (Greiner Bio-One). […] After lysis, the PBMC were resuspended in freezing medium (70% RPMI 1640 medium (Gibco, Thermo Fisher Technologies) supplemented with 10% heat-inactivated FCS and 100 U/ml penicillin-streptomycin, 20% heat-inactivated FCS and 10% DMSO (Sigma)) and cryopreserved. PBMC activation model: PBMC (0.2·10^6 cell/well) were cultured in 96-well flat bottom plates (Corning). For 24 hours the cells were pre-incubated with 2'-FL (Jennewein), 3'-GL (0-0.3% w/v; […] Sigma Aldrich) and combinations thereof. Subsequently, the cells were CD3/CD28-activated (Pelicluster CD3 and Pelicluster CD28, Sanquin) for an additional 24 hours. After incubation, IFNγ was measured by ELISA in the supernatants (see below). […] Roche) and/or 10% Triton (5 μl; negative control). […] Cytokine production of PBMC: PBMC were incubated with indicated reagents. After incubation, the supernatants were collected and IL2, IL6, IL10, IL13, IL21, TNFα, IFNγ, MIF, CCL1, CCL13, CCL17, CCL20, CCL22 and CXCL8-11 levels were measured by conducting a validated multiplex immunoassay based on Luminex technology (xMAP, Luminex Austin Tex. USA). Acquisition was conducted with the Biorad […] (Biorad laboratories, Hercules USA) in combination with xPONENT software version 4.2 (Luminex). Data was analyzed by 5-parametric curve fitting using Bio-Plex Manager software, version 6.1.1 (Biorad). After PBMC stimulation, cell culture supernatants were collected, after which cytokine responses were measured in order to test immune responsiveness of the cells. The levels of cytokines measured in stimulated conditions were corrected for the (low) levels of the cytokines measured in non-stimulated conditions. In addition, since each donor is reacting in its own efficiency onto the T cell stimulus, we calculated the individual index of cytokine response by dividing the intervention induced response by the basal stimulated response.

[3] = Caco-2 monolayer, DON 4.2 μM, 2′-FL 1 mg/ml

CC1=C[C@H]2O[C@@H]3[C@H](O)C[C@](C)([C@@]2(CO)[C@H](O)C1=O)[C@]31CO1 [DON, deoxynivalenol]
Lucifer yellow flux (Caco-2 cell monolayer; [3]): 530.8 (3.975)*** ng/ml (cm^2xh) | TEER (% of initial value) Mean (s.e.) (Caco-2 cell monolayer; [3]): 34.33 (1.088)*** % of initial value

OC[C@H]1O[C@H](O[C@H]2[C@@H](O)[C@@H](CO)O[C@@H](O[C@H]3[C@H](O)[C@@H](O)C(O)O[C@@H]3CO)[C@@H]2O)[C@H](O)[C@@H](O)[C@H]1O (stereo partly drawn) [alpha3′-GL, Gal (alpha 1-3)-Gal (beta 1-4)-Glc]
effect on DON-induced loss of epithelial barrier integrity (TEER, LY flux), in words (Caco-2 cell monolayer): did not prevent the DON-induced disrupted intestinal barrier

OC[C@H]1O[C@@H](O[C@@H]2[C@H](O)[C@@H](O)[C@H](O[C@H]3[C@H](O)[C@@H](O)C(O)O[C@@H]3CO)O[C@@H]2CO)[C@H](O)[C@@H](O)[C@H]1O (stereo partly drawn) [beta4′-GL, Gal (beta 1-4)-Gal (beta 1-4)-Glc]
effect on DON-induced loss of epithelial barrier integrity (TEER, LY flux), in words (Caco-2 cell monolayer): did not show a significant effect

OC[C@H]1O[C@@H](OC[C@H]2O[C@@H](O[C@H]3[C@H](O)[C@@H](O)C(O)O[C@@H]3CO)[C@H](O)[C@@H](O)[C@H]2O)[C@H](O)[C@@H](O)[C@H]1O (stereo partly drawn) [beta6′-GL, Gal (beta 1-6)-Gal (beta 1-4)-Glc]
effect on DON-induced loss of epithelial barrier integrity (TEER, LY flux), in words (Caco-2 cell monolayer): did not show a significant effect

CCCC(=O)O [butyrate, butyric acid]
% TEER at 48 h ([1]; 48 h pre-incubation): 79 (25) % | % TEER at 96 h (IL-4) ([1]; additional 48 h with IL-4 25 ng/ml): 26 (16) % | Immune cell activity as measured by WST, in words [2]: did not influence immune cell metabolic activity | IL10 level as compared to blanc control, in words (human PBMC, unstimulated; 0.2% 2′-FL, 0.2 mM butyrate): did not have an effect | CCL20 level as compared to blanc control, in words (human PBMC, unstimulated; unstimulated PBMC): did not have a statistically significant effect | Relative IL10 level, mean (se) (human PBMC, unstimulated; unstimulated, 0.2% w/v 2′-FL, 0.2 mM butyrate, blanc = 1, observed): 1.911 (0.203) | Relative CCL 20 mean (s.e.) (human PBMC, unstimulated; unstimulated, 0.2% w/v 2′-FL, 0.1 w/v % 3′-GL, 0.2 mM butyrate, blanc = 1, observed): 1.053 (0.127)
